Reference: ChEMBL document CHEMBL2321711, “2'-Fluoro-6'-methylene-carbocyclic adenosine phosphoramidate (FMCAP) prodrug: in vitro anti-HBV activity against the lamivudine-entecavir resistant triple mutant and its mechanism of action” (Bioorg Med Chem Lett, 2013)

How the values were obtained:
[1] = tested on: Hepatitis B virus; assay: Selectivity ratio of EC50 for entecavir-resistant Hepatitis B virus harboring L180M/M204V/S202G triple mutant to EC50 for wild type Hepatitis B virus; format: functional
[2] = tested on: Hepatitis B virus; assay: Antiviral activity against entecavir-resistant Hepatitis B virus harboring L180M/M204V/S202G triple mutant infected in human HuH7 cells; format: functional, organism-based; details: Huh-7
[3] = Cytotoxicity against human HuH7 cells; format: cell-based, Huh-7
[4] = tested on: Hepatitis B virus; assay: Antiviral activity against wild type Hepatitis B virus infected in human HuH7 cells; format: functional, organism-based; details: Huh-7
[5] = tested on: HepG2; assay: Mitochondrial toxicity in human HepG2 cells assessed as lactate dehydrogenase release up to 100 uM; format: cell-based
[6] = tested on: HepG2; assay: Mitochondrial toxicity in human HepG2 cells assessed as lactate dehydrogenase release up to 200 uM; format: cell-based

Row | SMILES | Ratio EC50 [1] | EC50 [2] [nM] | CC50 [3] [nM] | EC50 [4] [nM] | EC90 [4] [nM] | Activity [5] | Activity [6]
1 | C=C1[C@H](CO)[C@@H](O)C[C@@H]1n1cnc2c(=O)[nH]c(N)nc21.O [ENTECAVIR] | 150 | 1200 | 28000 | 8 | 33 | – | –
2 | C=C1[C@@H](n2cnc3c(N)ncnc32)[C@H](F)[C@H](O)[C@H]1CO | – | 670 | > 300000 | 548 | 6000 | Non-toxic | –
3 | C=C1[C@@H](n2cnc3c(N)ncnc32)[C@H](F)[C@H](O)[C@H]1COP(=O)(N[C@@H](C)C(=O)OC)Oc1ccccc1 (stereo not given in full) | – | 54 | > 300000 | 62 | 460 | – | –
4 | Cc1cn([C@H]2C[C@H](N=[N+]=[N-])[C@@H](CO)O2)c(=O)[nH]c1=O [ZIDOVUDINE] | – | – | – | – | – | – | Toxic
5 | Nc1ccn([C@@H]2CS[C@H](CO)O2)c(=O)n1 [LAMIVUDINE] | – | > 500000 | > 300000 | 56 | 142 | – | Non-toxic
